From ChEMBL document CHEMBL5608234, “Heat Shock Protein 90 Interactome-Mediated Proteolysis Targeting Chimera (HIM-PROTAC) Degrading Glutathione Peroxidase 4 to Trigger Ferroptosis” (J Med Chem, 2024) come the findings set out here.

The subject of assay [1] is HT-1080. The assay is described as follows: HIM-PROTAC activity at GPX4/HSP90/E3 ligase in HSP90-knockdown human HT-1080 cells assessed as GPX4 degradation at 1 uM preincubated with KW-2478 for 3 hrs followed by compound addition and measured after 24 hrs by Western blotting analysis. The class given is cell-based. (In general: In western blotting, separated proteins are transferred to a membrane and probed.)

Assay [2] has as its system HT-1080. The assay is described as follows: HIM-PROTAC activity at GPX4/HSP90/E3 ligase in HSP90-knockdown human HT-1080 cells assessed as GPX4 degradation at 1 uM preincubated with KUNB-31 for 3 hrs followed by compound addition and measured after 24 hrs by Western blotting analysis. The class given is cell-based.

Activity calls are given as the source filed them. No cut-off for these calls is given here.

As for `COc1c(C)cnc(Cn2cnc3c(NCCC4CCN(C(=O)Cn5cc(COc6ccc(N(C(=O)CCl)C(C(=O)NCCc7ccccc7)c7cccs7)cc6Cl)nn5)CC4)nc(N)nc32)c1C` (configuration not stated), the outcome in the assay on HT-1080 [1] and with HT-1080 [2] was inactive.
